According to patent US9822467B2, “Methods and systems relating to the selection of substrates comprising crystalline templates for the controlled crystallization of molecular species” (Massachusetts Institute of Technology, priority 2011, dated 2017):
“Also recorded” adds a separate entry of the source.

How the values were obtained:
[1] = cited from earlier work; for Stability of the polymorph: ambient conditions / air
[2] = Nucleation induction time of AAP from ethanol in the presence of crystalline substrates; assay type: physicochemical; settings: AAP Form I from ethanol; for Average induction times, τ: σ = 0.36, 15° C.; for Change in τ compared to bulk nucleation: σ = 0.36
Protocol: 1.5 mL aliquots of the stock solution were then syringe filtered into HPLC vials through a 0.2 μm nylon membrane in order to remove solid impurities. Crystallisations were carried out using a RS10 Clarity Solubility Station with non-intrusive infrared transmission probes and Integrity Client Software. The vials were initially held for 30 mins at 40° C. to ensure complete dissolution of AAP had occurred. After which they were cooled to 15° C. at a rate of 5° C./min and held at this temperature over a 24 hour period whilst the turbidity of the solution was monitored. Over the course of the experiments the stirring speed in each vial was held constant at 700 rpm. For those crystallizations requiring substrate, 3 mg was used. […] For each system studied 50 crystallisations were carried out to ensure a sufficient number of data points were obtained for statistical analysis.
The effectiveness of the five chosen substrates at promoting nucleation of AAP was measured by determining their effect on the nucleation induction time, τ. […] X-ray powder diffraction was used to confirm that it was the nucleation induction time of Form I being measured in all cases with any additional peaks in the diffraction patterns correspond to the substrates.
The percentage of vials crystallized as a function of time were plotted to give cumulative probability distributions of nucleation induction time for each system tested. […] It was assumed that nucleation follows a Poisson distribution (Equation 1). λ is the expected number of occurrences in the interval and k is the exact number of occurrences. If k=0 and […], then the probability of observing no nucleation events within a time, t, is given by equation 2 which is consistent with first order kinetic expressions previously used for studying nucleation events.
Using linear regression, plotting ln(P) against t (FIG. 10), the average induction times and associated errors were calculated (Table 3).

[3] = Polymorph obtained on crystallization of AAP from ethanol with or without crystalline substrate (DSC, XRPD); assay type: physicochemical; settings: supersaturation 0.49 with respect to Form I; for Polymorphic form of AAP crystallized in the presence of substrate: substrate seeds added, DSC/XRPD, label = substrate
Description: Such an observation implies that for both polymorphs their nucleation rate constants follow the relationship kI>kII. It was hypothesized crystalline substrates would be able to selectively crystallize Form II if they fit the following two core criteria: 1) the unit cell parameters of the substrate were substantially similar to that of Form II and 2) the molecular functionality of the compound acting as the substrate is similar to that of AAP. By constraining the crystallographic properties of the substrate in this way, a three dimensional lattice match with Form II was targeted. Furthermore, selection of compounds with similar functionality as AAP was selected to stabilize the formation of a nucleus through favorable interactions such as hydrogen bonds.
The crystallizations of AAP from ethanol were then repeated in the presence of 50 mg of 4-APAA seeds, added after the desired supersaturation had been achieved. Once crystallization occurred, the crystals were filtered immediately and analyzed by DSC and x-ray powder diffraction. […] Furthermore no melting endotherm for Form I which is often observed in DSC traces of apparently pure Form II.
A plot of dimensionless potential energy (V/V0) as a function of orientation angle (θ) for the interacting (001) faces of Form II acetaminophen and graphite was prepared. The EpiCalc calculation was performed using the following lattice values for the (001) faces of Form II acetaminophen and graphite: (001) Form II acetaminophen: a=17.1657 Å, b=11.7773 and Å and β=90° (001); graphite: a=b=2.456 Å and α=90°. The acetaminophen overlayer dimensions were 25×25 cells and the orientation angle range tested was 180° with a step size of 0.25°.

[4] = Polymorph obtained on crystallization of 3-ABSA from water with or without AMMP substrate (XRPD)
[5] = 3 mg substrate, 700 rpm, 50 crystallisations, label = substrate

Structure (SMILES): Nc1cccc(S(=O)(=O)O)c1 [3-ABSA Form II, 3-aminobenzenesulfonic acid]
- Stability of the polymorph [1]: thermodynamically most stable form under ambient conditions

Structure (SMILES): CC(=O)Nc1ccc(O)cc1 [AAP Form I, acetaminophen, reference compound]
- Average induction times, τ ([2]; bulk nucleation, no substrate): 1930 ± 85 min
- Stability of the polymorph [1]: thermodynamically stable phase under ambient conditions

Structure (SMILES): O.OC[C@H]1O[C@@H](O[C@H]2[C@H](O)[C@@H](O)[C@@H](O)O[C@@H]2CO)[C@H](O)[C@@H](O)[C@H]1O [α-LMH, α-lactose monohydrate]
- Polymorphic form of AAP crystallized in the presence of substrate [3]: Form I
- Average induction times, τ [2, 5]: 410 ± 11 min
- Change in τ compared to bulk nucleation ([2]; label = substrate): largest reduction in τ

Structure (SMILES): [Cl-].[Na+] [Sodium Chloride, sodium chloride]
- Polymorphic form of AAP crystallized in the presence of substrate [3]: Form I

Structure (SMILES): CC(=O)Nc1ccc(O)cc1 [AAP, acetaminophen, reference compound]
- Polymorphic form of AAP crystallized without substrate [3]: only Form I was obtained

Structure (SMILES): CC(=O)Nc1ccc(O)cc1 [AAP Form II, acetaminophen]
- Time until Form I crystallizes via solvent mediated phase transformation when seeding with Form II ([1]; in solution, seeded with Form II): ≤ 15 min
- Temperature of solid state transformation to Form I ([1]; solid state): Above 60 °C

Structure (SMILES): OC[C@@H](O)[C@@H](O)[C@H](O)[C@H](O)CO [D-mannitol]
- Polymorphic form of AAP crystallized in the presence of substrate [3]: Form I
- Average induction times, τ [2, 5]: 390 ± 8 min
- Change in τ compared to bulk nucleation ([2]; label = substrate): largest reduction in τ

Structure (SMILES): CC(=O)Nc1ccc(O)cc1 [AAP Form III, acetaminophen]
- Stability of the polymorph [1]: highly unstable in air

Structure (SMILES): Nc1cccc(S(=O)(=O)O)c1 [3-ABSA, 3-aminobenzenesulfonic acid]
- Polymorphic form of 3-ABSA crystallized without substrate ([4]; aqueous solution, no substrate): only Form II was obtained; also recorded: Form II had crystallized

Structure (SMILES): Nc1ccc(CC(=O)O)cc1 [4-APAA, 4-aminophenylacetic acid]
- Polymorphic form of AAP crystallized in the presence of substrate [3]: Form II crystallized

Structure (SMILES): N[C@@H](Cc1c[nH]cn1)C(=O)O [L-histidine]
- Average induction times, τ [2, 5]: 1910 ± 95 min
- Change in τ compared to bulk nucleation ([2]; label = substrate): no measureable decrease in τ

Structure (SMILES): COc1cc(C)nc(N)n1 [AMMP]
- Polymorphic form of 3-ABSA crystallized in the presence of substrate ([4]; aqueous solution saturated at 50° C., cooled to 10° C., 50 mg AMMP seeds, label = substrate): Form I crystallized; also recorded: a mixture of Forms I and II was obtained
